Literature values in patent publication US20180298405A1, “METHODS AND COMPOSITIONS TO INCREASE HUMAN SOMATIC CELL NUCLEAR TRANSFER (SCNT) EFFICIENCY BY REMOVING HISTONE H3-LYSINE TRIMETHYLATION, AND DERIVATION OF HUMAN NT-ESC” (CHILDREN'S MEDICAL CENTER CORPORATION, priority 2015, published 2018).

Test system: SETDB1 H3K9me3 HMTase; H3K27me3 and H3K9me3
Conditions: Lee et al., 2013; cited from earlier work

Nc1nccc2c1ncn2[C@@H]1C=C(CO)[C@@H](O)[C@H]1O [3-Deazaneplanocin A]
effect on H3K27me3 and H3K9me3 levels: reduced levels of both H3K27me3 and H3K9me3 | effect on SETDB1 H3K9me3 HMTase: decrease of SETDB1 H3K9me3 HMTase
